Experimental data reported in patent US20250275938A1, “COMPOSITIONS AND METHODS FOR TREATMENT OF CANCER” (SCIROSBIO (FZC), priority 2022, published 2025).

Key:
[1] = system: C6 glioma cells; assay: Quantitative RT-PCR gene expression, C6; assay type: cell-based, rat
Experimental: (§1) Quantitative RT-PCR analysis of antioxidant enzymes (SOD and CAT), oxidative stress marker (Nrf-2), and apoptosis markers (BCL2 and Caspase-9). Total RNA from all experimental groups was isolated using RNA Express reagent (HiMedia, India) and the respective cDNAs were synthesized using a Hi-c-DNA Synthesis Kit (HiMedia, India). Quantitative RT-PCR was carried out using a CFX 96 thermocycler (Bio-Rad, Hercules, CA) and TB Green Premix Ex Taq 1 (Takara Bio, Otsu, Japan) to detect mRNA. Independent experiments were conducted in triplicate. The cycle threshold (Ct), representing a positive PCR result, is defined as the cycle number at which a sample's fluorescence intensity crossed the threshold automatically determined by the CFX 96.
(§2) The relative changes in gene expression were calculated with the 2^−ΔΔCt method, wherein ΔΔCt=(Cttarget gene−Ctβ-actin) sample−([…]) calibrator.
(§3) The qPCR analyses were performed to measure the expression levels of genes associated with anti-Warburg effect. The total RNA was extracted from the cell lysates and brain tissues of all the experimental groups using TRIZOL reagent (Takara Bio, Shiga, Japan). Quantitative RT-PCR was carried out using a CFX96 Real Time PCR Detection System (Bio-Rad, California, USA) and TB Green Premix Ex Taq I (Takara Bio, Shiga, Japan) to detect messenger ribonucleic acid (mRNA).
(§4) Independent experiments were conducted in triplicate. The relative changes in gene expression were calculated with the 2^−ΔΔCt method, where ΔΔCt=Sample (Cttarget gene−Ctβ-actin)−Calibrator (Cttarget gene−Ctβ-actin).

[2] = system: intracellular ROS in U87MG cells; assay: ROS activity by DCF-DA, U87MG; assay type: cell-based, human; conditions: IC50 concentrations, vs control
Experimental: Determination of ROS activity by DCF-DA. U87MG and C6 cells were seeded at 5×10^3 cells/well in 96 well plates. […] After the treatment period, monolayer cells were stained with DCF-DA stain, and the absorbance was read at 530 nm spectrophotometrically (Molecular Devices Spectra-Max M5, USA). This method is commonly used in ROS investigations and is based on the application of H2DCFDA (acetylated form of DCF), which is consecutively deacetylated inside the cells by intracellular esterase.

[3] = system: C6 glioma cells; assay: AO/EtBr dual staining for apoptosis, C6; assay type: cell-based, rat; conditions: respective IC50 concentrations
Excerpt: AO/EtBr are fluorescent nuclear stains, which distinguish between live and dead cells based on their membrane integrity. AO intercalates in the DNA of live cells imparting green shade to the nucleus as an indica-tor of viability. In the case of the dead cell, EtBr intercalates along with AO, resulting in an orange appearance, with an increased orange appearance corresponding to a concomitant increase in the number of dead cells and vice versa.
After the treatment period, monolayer cells were stained with AO/EtBr stain (1 mg/ml) and were visualized immediately under a fluorescence microscope (Axiovert, Carl Zeiss) at 20× magnification.

[4] = system: U87MG glioma cells; assay: Quantitative RT-PCR gene expression, U87MG; assay type: cell-based, human
Experimental: as §1, §2, §3, §4

[5] = system: C6 rat glioma cell line; assay: MTT cell viability assay, C6; assay type: cell-based; conditions: for cell viability / anti-proliferative effect (MTT), in words / IC50: C6, 24 hours; for IC50: Rattus norvegicus, individual drug, mean ± SD, no unit in table, test concentrations given in μM, read-out: Inhibitory Concentration at 50% (IC50) C6 Cells
Experimental: Cell lines and culture conditions. A human glioma cell line, U87MG, a rat glioma cell line, C6, and normal HEK293T (Human Embryonic Kidney) cells were obtained from National Centre for Cell Science (NCCS), Pune, India. The cells were sub-cultured in Dulbecco's Modified Eagle's Medium (DMEM) supplemented with 10% FBS at 5% CO2 and 37° C. At 85% confluence, the cells were harvested using 0.25% trypsin and seeded in 25 cm^2 flasks, 96 well, and 6-well plates, according to the experiment being performed. The cells were allowed to attach 70% to the surface prior to treatment. A stock solution of all the drugs (10 mg/ml) was made in a vehicle and diluted to the required concentrations. Suspensions were aspirated 10 times before treatment. Cells treated with vehicle control were used as a control.
Cell viability assay. U87MG and C6 cells (5×10^3 cells/ml) were seeded in 96-well plates and exposed to different individual-drug treated groups with varying concentrations (0, 10, 40, 80, 120, and 160 μM) for a period of 24 hours, whereas HEK293T cells (5×10^3 cells/ml) were seeded at the inhibitory concentration (IC) at 50% of drugs, either alone or in combination. The individual-treated groups include Group I: untreated control glioma cells; Group II: TMZ-treated glioma cells; Group III: MET-treated glioma cells; and Group IV: EGCG-treated glioma cells.
After a 24 hour treatment period, the cells were allowed to react with MTT for 4 hours in dark at 37° C. At the end of the incubation period, the dark purple formazan crystals formed were solubilized with DMSO and the absorbance was measured spectrophotometrically at 595 nm (Molecular Devices Spectra-Max M5, USA). The experiments were repeated at least three times. To determine the cell viability, the percentage of viability was calculated as follows:
% viability=[(Optical density {OD} of treated cells−OD of Blank)/(OD of control−OD of blank)]×100.
Calculation of IC50 value. The IC50 of a drug was determined using y=m(x)+c equation (where: ‘y’ & ‘x’ are the respective coordinates of y & x-axis, ‘m’ is the slope and ‘c’ is the constant) derived from the trendlines of each scattered plots MMT assay. […] The IC50 and IC25 were also calculated for the dual combinations. The IC50 for the triple combination was calculated by keeping the IC25 of the dual-combination constant, and the third drug was used in varying concentrations (0, 10, 40, 80, 120, and 160 μM) (Table 1).
Combination index of drugs. According to the Chou-Talalay method, The statistical Combination Index (CI) of the drugs was performed according to the Chou-Talay method (Ma et al, Stem Cell Reports, 2017 9(6):1948-1960) to determine whether various drug combinations were synergistic, additive, or antagonistic, as shown in Table 1. This was performed for Groups V-IX using the following formula:
Combination index (CI) of Drugs 1 & 2=(IC50 of drug-1 in combination/IC50 of drug-1 individually)+(IC50 of drug-2 in combination/IC50 of drug-2 individually).

[6] = system: rat brain tissue; assay: Western blotting and ELISA of brain tissue proteins; assay type: in vivo; conditions: i.p. 7 days

Compound | mRNA expression levels of BCL2 [1] | mRNA expression levels of Caspase-9 [1] | mRNA transcript levels of Nrf-2 [1] | mRNA transcripts of the antioxidant genes (SOD and CAT) [1] | intracellular ROS levels (DCF-DA fluorescence intensity) [2] | apoptotic cell death (AO/EtBr) [3] | apoptotic cell death (AO/EtBr) ([3]; listed as E) | mRNA expression levels of BCL2 [4] | mRNA expression levels of Caspase-9 [4] | mRNA transcript levels of Nrf-2 [4] | mRNA transcripts of the antioxidant genes (SOD and CAT) [4] | cell viability / anti-proliferative effect (MTT), in words [5] | cell viability / anti-proliferative effect (MTT), in words ([5]; listed as ECGC) | IC50 [5] [µM] | protein levels of HIF-1α [6] | protein levels of Nrf-2 [6] | apoptotic cell death (AO/EtBr) ([3]; hydrochloride) | apoptotic cell death (AO/EtBr) ([3]; listed as M, hydrochloride) | IC25 C6 ([5]; as used in the triple combination for CI) [µM]
O=C(O[C@@H]1Cc2c(O)cc(O)cc2O[C@@H]1c1cc(O)c(O)c(O)c1)c1cc(O)c(O)c(O)c1 [EGCG, [(2R,3R)-5,7-dihydroxy-2-(3,4,5-trihydroxyphenyl)-3,4-dihydro-2H-chromen-3-yl] 3,4,5-trihydroxybenzoate] | not found to be statistically significant | not found to be statistically significant | did not have any significant effect | significant up-regulation | increased significantly | did not produce any significant apoptotic activity | no apoptosis | not found to be statistically significant | not found to be statistically significant | did not have any significant effect | significant up-regulation | reduction in cell viability in a dose-dependent fashion | did not result in significant inhibitory effects | 96 ± 1.76 | significantly reduced | significantly reduced | – | – | –
CN(C)C(=N)N=C(N)N.Cl [MET, 3-(diaminomethylidene)-1,1-dimethylguanidine; hydrochloride] | not found to be statistically significant | not found to be statistically significant | did not have any significant effect | – | did not show much effect on ROS levels | – | – | not found to be statistically significant | not found to be statistically significant | did not have any significant effect | – | reduction in cell viability in a dose-dependent fashion | – | 77 ± 1.42 | – | – | did not produce any significant apoptotic activity | no apoptosis but loss of cell membrane integrity | 38.40
